“Also recorded” adds a separate entry of the source.
What was measured:
[1] = system: WT murine primary chondrocytes; assay: Murine primary chondrocyte calcification (Alizarin red); assay type: cell-based, mouse; conditions: sCPP 24 h, DMEM+10% FBS, 50 uM
Experimental: (a) WT and Cse-deficient chondrocytes were incubated with a CSE activator (SU004, 50 μM) previously identified by high-through put screen, or with the equivalent volume of DMSO (0.1%) for 24 hours in calcification medium. STS 25 mM was used as a positive control for calcification inhibition. Calcium-containing crystals were stained with Alizarin red and quantified. (b) Cytotoxicity was assessed by LDH measurement and expressed as % over 100% cytotoxicity. (c) IL-6 secretion was measured by ELISA in supernatant of WT chondrocytes incubated with SU004 50 μM or STS 25 mM for 24 hours in calcification medium. (d) Primary human chondrocytes from 3 OA patients (P1, P2, P3) were incubated with SU004 50 μM, or with the equivalent volume of DMSO (0.1%) for 24 hours in calcification medium. Calcium-containing crystals were stained with Alizarin red and quantified. (e) Cytotoxicity was assessed by LDH measurement and expressed as % over 100% cytotoxicity. (f) IL-6 secretion was measured by ELISA in supernatant of human chondrocytes incubated for 24 hours with SU004 50 μM in calcification medium. *p<0.05, ** p<0.01, ****p<0.0001.
Primary murine chondrocytes were stimulated with secondary calciprotein particles (sCPP) for 24 h in DMEM+10% FBS in presence of C5 or C6 at 50 uM or vehicle (DMSO). Mineralization was analyzed by Alizarin red staining of the cells (A) and quantified (B). Statistical analysis was determined using one-way ANOVA with **p<0.01 and ***p<0.001.
Chondrocytes were isolated from 6 days old mice (Cse KO, Cse tg, Cbs KO and corresponding WT mice) as described previously (Nasi, So, et al. 2016). Tenocytes were isolated from 6 to 8 weeks old mice (Cse KO and WT) and by double digestion in Collagenase IV NB standard grade (Witec AG). […]
After incubation in calcification media, supernatant was collected for ELISA and LDH measurement, and cell monolayer was washed in PBS, fixed in 10% formol and crystal deposition analyzed through Alizarin red staining and quantified as previously described

ATDCS chondrocytes = assay: ATDCS chondrocyte mineralization (Alizarin red); assay type: cell-based; conditions: sCPP 24 h, different concentrations
Experimental: Alizarin red staining of ATDCS chondrocytes stimulated with sCPP for 24 h in DMEM+10% FBS in presence of different concentrations of compounds C5 and C6. The graphs show Alizarin red absorbance at 570-630 nm. Statistical analysis (in comparison to 0) was determined using one-way ANOVA with *p<0.05, **p<0.01, ***p<0.001, […].

MOVAS cells = assay: Cytotoxicity assay, LDH release; assay type: cell-based, mouse; conditions: at 2 uM
Experimental: A) Alizarin red staining of MOVAS cells stimulated with CPP for 24 h in DMEM+10% FBS in presence of different concentrations of compound 22401. […] The background (Alizarin red staining obtained with cells in the absence of CPP) was subtracted from all values. B) Percentage of cytotoxicity, as measured by LDH release, in MOVAS cells in the same conditions as A). Statistical analysis was determined using one-way ANOVA with *p<0.05, **p<0.01, ***p<0.001.
Measurement of lactate dehydrogenase (LDH) as a means of cytotoxicity assay was performed with using CytoTox-ONE Homogeneous Membrane Integrity Assay (Promega) according to the manufacturer's instructions. Values were calculated as percentage of cytotoxicity using the following formula: [(value in sample)−(background)]/[(value in Triton X-100-treated sample)−(background)]×100.

primary murine tenocytes = assay: Primary murine tenocyte mineralization (Alizarin red); assay type: cell-based, mouse; conditions: secondary CPP 24 h, 50 uM; listed as Z20
Experimental: A) Alizarin red absorbance at 570-630 nm of primary murine tenocytes stimulated with secondary CPP for 24 h in DMEM+10% FBS and treated or not with 50 uM of Z20. B) Percentage of cytotoxicity (LDH %) in tenocytes treated or not with Z20 for 24 h. Statistical analysis was determined using one-way ANOVA with ***p<0.001.
Chondrocytes were isolated from 6 days old mice (Cse KO, Cse tg, Cbs KO and corresponding WT mice) as described previously (Nasi, So, et al. 2016). Tenocytes were isolated from 6 to 8 weeks old mice (Cse KO and WT) and by double digestion in Collagenase IV NB standard grade (Witec AG). Chondrocytes were amplified in DMEM with 10% FBS and 1% Penicillin Streptomycin and used at P1. Tenocytes were amplified in αDMEM with 10% FBS, 0.2 mM L-ascorbic acid, 2-phosphate and 1% Penicillin Streptomycin and used at P1. For crystal formation analysis, cells were cultured for 14 days in calcification medium (BGJb (Gibco) medium with 10% FBS, 0.2 mM L-ascorbic acid, 2-phosphate, 20 mM β-glycerol phosphate and 1% Penicillin Streptomycin). Medium and stimulations were refreshed every 3 days of culture. Alternatively, in some experiments, cells were cultured for 24 h in medium supplemented with secondary calciprotein particles (CPP, final concentration equivalent to […] calcium) to induce calcification as previously described (Aghagolzadeh et al. 2017). […]

WT primary VSMC = assay: Primary vascular smooth muscle cell mineralization, wild type; assay type: cell-based, mouse; conditions: secondary CPP 24 h, 50 uM, listed as Z20
Experimental: (§1) Primary VSMC were isolated from wild-type (WT) or CSE-deficient (CSE ko) mice. A) Alizarin red staining of WT or CSE ko VSMC stimulated with secondary CPP for 24 h in DMEM+10% FBS and treated or not with 50 uM of compound Z20. […] Statistical analysis was determined using one-way ANOVA (compared to WT vehicle) with ***p<0.001, ****p<0.0001.

HaCaT cells = assay: Human keratinocyte line mineralization (Alizarin red); assay type: cell-based; conditions: secondary CPP 24 h, different concentrations; listed as Z20
Experimental: Immortalized human keratinocytes HaCaT cells were stimulated with secondary CPP and different concentrations of the compound Z20 for 24 h. Cells were then stained with Alizarin Red. […] Statistical analysis was determined using one-way ANOVA with *p<0.05, ***p<0.001.

CSE ko primary VSMC = assay: Primary vascular smooth muscle cell mineralization, CSE ko; assay type: cell-based, mouse; conditions: secondary CPP 24 h, 50 uM
Experimental: as §1

In the case of `Cn1ncc2c(Nc3cnn(CC4CCCO4)c3)ncnc21` (stereo not shown) [Compound 8, N-{1-methyl-1H-pyrazolo[3,4-d]pyrimidin-4-yl}-1-[(oxolan-2-yl)methyl]-1H-pyrazol-4-amine], the “Mineralization (Alizarin red)” value [1] was “inhibit primary murine chondrocyte mineralization”, the “Mineralization (Alizarin red absorbance 570-630 nm)” value (ATDCS chondrocytes) was “inhibit ATDCS mineralization in vitro in a dose dependent fashion” and the “Cytotoxicity assay LDH release (% of cytotoxicity)” value (MOVAS cells) was 15% at.

In the case of `CCn1cnc2c(Nc3cnn(CC4CCCO4)c3)ncnc21` (stereo not shown) [Compound 13], the “Mineralization (Alizarin red absorbance 570-630 nm)” value (primary murine tenocytes) was “inhibited calcification; also recorded: inhibits primary murine tenocyte mineralization”, the “Mineralization (Alizarin red, % over WT vehicle)” value (WT primary VSMC) was “significant inhibition; also recorded: inhibits primary vascular smooth muscle cell mineralization” and the “Mineralization (Alizarin red absorbance 570-630 nm)” value (HaCaT cells) was “inhibited calcification; also recorded: inhibits human keratinocyte line mineralization”. The “Mineralization (Alizarin red, % over WT vehicle)” value (CSE ko primary VSMC) was “no inhibition”.
